Assays:
Type in all cases: cell-based, human
[1] = test system: A549 lung cancer cell; assay: MTT anti-proliferative assay, A549; conditions: for IC50: MTT, 48 h
Protocol: (§1) The anti-proliferation activities of the synthesized analogs were assessed by an in vitro MTT assay conducted on thirteen human cell lines. Their cytotoxic activities were evaluated by measuring the inhibition of net cell growth. […]
(§2) 1.6. Cell lines and cell culture
(§3) MTT was purchased from Sigma-Aldrich Co. (St. Louis, MO, USA). The PI and Annexin V-FITC apoptosis detection kit were purchased from Invitrogen (Eugene, OR, USA). All human cell lines were used in this study. […]
(§4) cell, MCF-7 breast cancer cell, MCF-10A normal breast cell, Raji B lymphoblastoid cell and diffuse large B-cell lymphoma SU-DHL-10 cell were initially purchased from American Type Culture Collection (ATCC, Manassas, Virginia). media, DMEM, and FBS were provided from Gibco Company.
(§5) 1.7. Cell growth inhibition assay (MTT assay)
(§6) The experiment was carried out according to the method of reference. Briefly, cells were plated in 96-well plates at a den- […]
(§7) the anti-proliferative activities were determined by MTT assay. […]
(§8) (Becton-Dickinson, Franklin Lakes, NJ). […]

[2] = test system: AGS gastric cancer cell; assay: MTT anti-proliferative assay, AGS; conditions: for IC50: MTT, 48 h
Protocol: as §1, §2, §3, §4, §5, §6, §7, §8

[3] = test system: BEL-7402 liver cancer cell; assay: MTT anti-proliferative assay, BEL-7402; conditions: for IC50: MTT, 48 h
Protocol: as §1, §2, §3, §4, §5, §6, §7, §8

[4] = test system: HCT116 colectal cancer cell; assay: MTT anti-proliferative assay, HCT116; conditions: for IC50: MTT, 48 h, read-out: IC50 HCT-116
Protocol: as §1, §2, §3, §4, §5, §6, §7, §8

[5] = test system: HeLa cervical cancer cell; assay: MTT anti-proliferative assay, HeLa; conditions: for IC50: MTT, 48 h
Protocol: as §1, §2, §3, §4, §5, §6, §7, §8

[6] = test system: HepG2 hepatoma cell; assay: MTT anti-proliferative assay, HepG2; conditions: for IC50: MTT, 48 h, read-out: IC50 HepG-2
Protocol: as §1, §2, §3, §4, §5, §6, §7, §8

[7] = test system: L-02 normal liver cell; assay: MTT assay, L-02 normal cells; conditions: 48 h
Protocol: as §1, §2, §3, §4, §5, §6, §7, §8

[8] = test system: MGC-803 late stage differentiation gastric cancer cell; assay: MTT anti-proliferative assay, MGC-803; conditions: for IC50: MTT, 48 h
Protocol: as §1, §2, §3, §4, §5, §6, §7, §8

[9] = test system: MCF-7 breast cancer cell; assay: MTT anti-proliferative assay, MCF-7; conditions: for IC50: MTT, 48 h
Protocol: as §1, §2, §3, §4, §5, §6, §7, §8

[10] = test system: MCF-10A normal breast cell; assay: MTT assay, MCF-10A normal cells; conditions: 48 h
Protocol: as §1, §2, §3, §4, §5, §6, §7, §8

[11] = test system: Raji B lymphoblastoid cell; assay: MTT anti-proliferative assay, Raji; conditions: for IC50: MTT, 48 h, read-out: IC50 Raji
Protocol: as §1, §2, §3, §4, §5, §6, §7, §8

[12] = test system: SGC-7901 early differentiation gastric cancer cell; assay: MTT anti-proliferative assay, SGC-7901; conditions: for IC50: MTT, 48 h
Protocol: as §1, §2, §3, §4, §5, §6, §7, §8

[13] = test system: diffuse large B-cell lymphoma SU-DHL-10 cell; assay: MTT anti-proliferative assay, SU-DHL-10; conditions: for IC50: MTT, 48 h, read-out: IC50 SU-DHL-10
Protocol: as §1, §2, §3, §4, §5, §6, §7, §8

SMILES | IC50 [1] | IC50 [2] | IC50 [3] | IC50 [4] | IC50 [5] | IC50 [6] | IC50 [7] | IC50 [8] | IC50 [9] | IC50 [10] | IC50 [11] | IC50 [12] | IC50 [13] | SI (selectivity index), IC50 (L-02)/IC50 (AGS) [2] | SI (selectivity index), IC50 (L-02)/IC50 (HCT-116) [4] | SI (selectivity index), IC50 (L-02)/IC50 (MGC-803) [8] | SI (selectivity index), IC50 (L-02)/IC50 (Raji) [11] | SI (selectivity index), IC50 (L-02)/IC50 (SGC-7901) [12] | SI (selectivity index), IC50 (L-02)/IC50 (SU-DHL-10) [13] | further results
N#C/C(=C\c1ccccc1)c1ccc(OC(F)(F)F)cc1 [Compound 1a2a] | > 100 µM | > 100 µM | > 100 µM | > 100 µM | > 100 µM | > 100 µM | > 100 µM | > 100 µM | > 100 µM | > 100 µM | > 100 µM | > 100 µM | > 100 µM |  |  |  |  |  |  | 
N#C/C(=C\c1ccc(F)cc1)c1ccc(OC(F)(F)F)cc1 [Compound 1a2b] | > 100 µM | 13.2 ± 3.3 µM | 15 ± 2.7 µM | 23.5 ± 4.6 µM |  | > 100 µM | > 100 µM | 37.4 ± 5.8 µM | > 100 µM | > 100 µM | 49 ± 7.4 µM | > 100 µM | 38.8 ± 3.7 µM |  |  |  |  |  |  | 
N#C/C(=C\c1ccc(Cl)cc1)c1ccc(OC(F)(F)F)cc1 [Compound 1a2c] | 65.8 ± 8.9 µM | 18.6 ± 3 µM | > 100 µM | 20.2 ± 1.7 µM | 72.3 ± 2.4 µM | 20.7 ± 1.4 µM | > 100 µM | 35.2 ± 2.8 µM | 55.2 ± 2.8 µM | > 100 µM | 55.1 ± 3.2 µM | 56.4 ± 9.7 µM | > 100 µM | > 5.3 | > 4.9 | > 2.8 | > 1.8 | > 1.7 |  | SI (selectivity index), IC50 (L-02)/IC50 (A549) [1]: > 1.5; SI (selectivity index), IC50 (L-02)/IC50 (HeLa) [5]: > 1.3; SI (selectivity index), IC50 (L-02)/IC50 (HepG-2) [6]: > 4.8; SI (selectivity index), IC50 (MCF-10A)/IC50 (MCF-7) [9]: > 1.8
N#C/C(=C\c1ccc(Br)cc1)c1ccc(OC(F)(F)F)cc1 [Compound 1a2d] | > 100 µM | 19.6 ± 2.9 µM | > 100 µM | 25.4 ± 6.8 µM | 87.3 ± 4.1 µM | 24.3 ± 3.4 µM | > 100 µM | > 100 µM | > 100 µM | > 100 µM | 64.9 ± 1.5 µM | > 100 µM | 73.5 ± 17.3 µM | > 5.0 | > 3.9 |  | > 1.5 |  | > 1.3 | SI (selectivity index), IC50 (L-02)/IC50 (HeLa) [5]: > 1.1; SI (selectivity index), IC50 (L-02)/IC50 (HepG-2) [6]: > 4.1
Cc1ccc(/C=C(\C#N)c2ccc(OC(F)(F)F)cc2)cc1 [Compound 1a2e] | > 100 µM | 30.8 ± 7.9 µM | > 100 µM | > 100 µM | > 100 µM | > 100 µM | > 100 µM | > 100 µM | > 100 µM | > 100 µM | > 100 µM | > 100 µM | > 100 µM | > 3.2 |  |  |  |  |  | 
CCc1ccc(/C=C(\C#N)c2ccc(OC(F)(F)F)cc2)cc1 [Compound 1a2f] | > 100 µM | 14.6 ± 5.9 µM | > 100 µM | 43.5 ± 3.8 µM | > 100 µM | > 100 µM | > 100 µM | 56.7 ± 11 µM | 59.9 ± 2.3 µM | > 100 µM | 42.7 ± 3.4 µM | 77.9 ± 12.6 µM | 15.1 ± 11.6 µM | > 6.8 | > 2.2 | > 1.7 | > 2.3 | > 1.2 | > 6.6 | SI (selectivity index), IC50 (MCF-10A)/IC50 (MCF-7) [9]: > 1.6
CC(C)c1ccc(/C=C(\C#N)c2ccc(OC(F)(F)F)cc2)cc1 [Compound 1a2g] | 71.6 ± 24.7 µM | 8.7 ± 2.1 µM | > 100 µM | 57.4 ± 7.8 µM | > 100 µM | > 100 µM | > 100 µM | > 100 µM | > 100 µM | > 100 µM | 66.6 ± 13.3 µM | 89.9 ± 5.6 µM | 27.3 ± 5.3 µM | > 11.4 | > 1.7 |  | > 1.5 | > 1.1 | > 3.6 | SI (selectivity index), IC50 (L-02)/IC50 (A549) [1]: > 1.3
CN(C)c1ccc(/C=C(\C#N)c2ccc(OC(F)(F)F)cc2)cc1 [Compound 1a2h] | > 100 µM | 69.6 ± 15.7 µM | 24.1 ± 2.8 µM | 8.7 ± 1.7 µM | > 100 µM | > 100 µM | > 100 µM | 16.8 ± 0.7 µM | > 100 µM | > 100 µM | 67.4 ± 31.7 µM | 19.7 ± 1.5 µM | > 100 µM | > 1.4 | > 11.4 | > 5.9 | > 1.4 | > 5.0 |  | SI (selectivity index), IC50 (L-02)/IC50 (BEL-7402) [3]: > 4.1
CCN(CC)c1ccc(/C=C(\C#N)c2ccc(OC(F)(F)F)cc2)cc1 [Compound 1a2i] | > 100 µM | > 100 µM | > 100 µM | > 100 µM | > 100 µM | > 100 µM | > 100 µM | > 100 µM | > 100 µM | > 100 µM | 45.1 ± 15.6 µM | > 100 µM | > 100 µM |  |  |  | > 2.2 |  |  | 

Reference: PMC11071649, “Synthesis and Selective Anticancer Activity Evaluation of 2-phenylacrylonitrile Derivatives as Tubulin Inhibitors” (Current Medicinal Chemistry, 2024)
